Measured values as given in patent publication US6287840A (Axys Pharmaceuticals, Inc., priority 1999, dated 2001).
Where two headings read alike, the source gives them in different places.

Tests used:
cruzain, from T. cruzi = cruzain, from T. cruzi (Trypanosoma cruzi, UniProt P25779); experiment: Inhibition of cruzain, as for cathepsin L; format: biochemical; settings: for k/KI (kirr/KI): values without asterisk
Summary of the method: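 Run as for cathepsin L with 1 nM cruzain in 50 mM phosphate pH […], 2.5 mM DTT, 2.5 mM EDTA, 5 μM Z-Phe-Arg-AMC, at 25 °C, inhibitors 30-0.001 μM; fluorescence (ex 380/em 460 nm) followed continuously. kobs fitted from progress curves and kobs/[I] reported; selected compounds gave kirr, KI, kirr/KI, with KI corrected by (1+[S]/Km).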

P. carinii = experiment: Growth of P. carinii in vitro; format: cell-based; settings: 10 mM each
Procedure: Mu-Leu-HphVSPh and Mu-Phe-LysVSPh.HBr were evaluated for their effects on the growth of P. carinii in vitro, according to the procedure of M. S. Bartlett et al. [Antimicrotubule Benzimidazoles Inhibit In Vitro Growth of P. carinii, M. S. Bartlett, T. D. Edlind, M. M. Durkin, M. M. Shaw, S. F. Queener, and J. W. Smith, (1992) Antimicrobial Agents and Chemotherapy, 36, 779-782; Antimicrobial susceptibility of P. carinii in culture, M. S. Bartlett, R. Eichholtz, and J. W. Smith (1985) Diagn. Microbiol. Infect. Dis.; 3, 381-387. Mu-Leu-HphVSPh and Mu-Phe-LysVSPh.HBr (10 mM each) inhibited the growth of P. carinii 64% and 50% respectively.

[1] = biological target: T1, Cathepsin L from rat liver (Rattus norvegicus, UniProt P07154); experiment: Inhibition of cathepsin L, Z-Phe-Arg-AMC fluorescence progress curves; format: biochemical; settings: for Ki: corrected for substrate; for kobs /[I]* (approximate second-order inactivation constant): values marked *; for kobs /[I]* (approximate second-order inactivation constant) / k/KI (kirr/KI): 25° C., pH 6.2; for k/KI (kirr/KI): values without asterisk
T1 construct: Cathepsin L from rat liver; from tissue; host or cells: rat liver
T1 sequence (P07154 114-288 limits assumed): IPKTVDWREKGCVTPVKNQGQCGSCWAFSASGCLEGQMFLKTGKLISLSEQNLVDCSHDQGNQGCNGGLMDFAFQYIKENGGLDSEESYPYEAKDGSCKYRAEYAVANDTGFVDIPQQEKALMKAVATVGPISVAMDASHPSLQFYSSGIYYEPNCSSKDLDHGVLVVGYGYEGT
T1 sequence (P07154 291-334 limits assumed): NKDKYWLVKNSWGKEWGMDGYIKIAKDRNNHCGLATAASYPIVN
Summary of the method: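 Progress curves of AMC release (380/460 nm) over at least 3 inactivation half-times were fitted to kobs, reported as kobs/[I] or, via 1/[I] vs 1/kobs, kirr, KI (substrate-corrected) and kirr/KI.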

T. cruzi = T. cruzi infected irradiated J774 cells; format: cell-based; design: dose or concentration left out as unconfirmed; settings: thereafter without inhibitor; compounds listed in decreasing order of effectiveness
Procedure: Irradiated J774 cells were infected with T. cruzi and simultaneously treated with […] of peptidyl vinyl derivatives for 5 days; thereafter without inhibitor. The following compounds were effective in decreasing order: Mu-Phe-ArgVSPh, Boc-Tyr(I2)-HphVSPh, Mu-Phe-VaIVSPh, Boc-Tic-HphVSPh, Mu-Phe-Ser(OBzl)VSPh, Mu-Leu-HphVSPh, Mu-Tyr(I2)-HphVSPh, Mu-Phe-LysVSPh, Mu-Tic-HphVSPh.

Cloned cathepsin S = biological target: T2, Cloned cathepsin S (Homo sapiens, UniProt P25774); experiment: Inhibition of cathepsin S, Z-Val-Val-Arg-AMC fluorescence progress curves; format: biochemical; settings: for Ki: corrected for substrate; for k/KI (kirr/KI): values without asterisk, 25° C., pH 6.5
T2 construct: made in house
T2 sequence (P25774 115-331): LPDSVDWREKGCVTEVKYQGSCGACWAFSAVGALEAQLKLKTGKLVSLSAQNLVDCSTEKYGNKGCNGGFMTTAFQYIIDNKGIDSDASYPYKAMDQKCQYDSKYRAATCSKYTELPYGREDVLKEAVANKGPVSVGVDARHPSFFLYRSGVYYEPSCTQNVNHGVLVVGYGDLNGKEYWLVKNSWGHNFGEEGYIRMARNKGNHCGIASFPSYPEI
Summary of the method: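 Fluorescence (380 nm excitation, 460 nm emission) was followed after adding sub-nM enzyme to pH 6.5 phosphate buffer with DTT, EDTA, Triton, 10 μM Z-VVR-AMC and 30-0.001 μM inhibitor at 25 °C. Fitted kobs values gave apparent kobs/[I]; for some, double-reciprocal plots gave kirr, KI and kirr/KI, KI corrected by 1+[S]/Km.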

U87MG = experiment: Matrigel barrier migration assay, U87MG; format: cell-based, human; design: dose or concentration left out as unconfirmed
Procedure: Two permanent human glioma cell lines (U87MG and U251MGn) and a well characterized low passage primary culture derived from a CB-positive glioblastoma (HF66) were used to assess the migratory behavior in the Matrigel barrier migration assay in the presence of graded concentrations of four compounds.
Using the Matrigel assay, Mu-Leu-HphVSPh, Mu-Tyr-HphVSPh, Mu-Phe-HphVSPh, and Mu-Tyr(I2)-HphVSPh (all at 10 mM) inhibited U251MGn by 67, 56, 29, & 20% respectively, while the U87MG cells were inhibited 53, 75, 63, & 56% respectively. The primary culture HF66 cells were inhibited only 10% by these compounds at the same concentration.

calpain = experiment: Inhibition (inactivation) of calpain, Suc-Leu-Tyr-AMC; format: biochemical; settings: values marked * (or %); pH 7.5, 5 mM CaCl2, 25° C.
Procedure: The inhibitors were tested against calpain at 1 or 2% as for the other enzymes. The reaction conditions were 50 mM Tris, pH 7.5, 5 mM CaCl2, 2.5 mM DTT, assayed at 25° C. The substrate was 100 μM Suc-Leu-Tyr-AMC.

Chain of cruzain, from T. cruzi (P25779 123-337 limits assumed): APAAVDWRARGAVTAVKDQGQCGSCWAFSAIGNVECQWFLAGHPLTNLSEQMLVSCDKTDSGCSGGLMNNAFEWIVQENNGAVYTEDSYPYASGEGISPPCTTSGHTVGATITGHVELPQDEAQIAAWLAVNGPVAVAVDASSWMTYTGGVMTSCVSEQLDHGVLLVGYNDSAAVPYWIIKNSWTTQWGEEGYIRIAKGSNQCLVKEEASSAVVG

Row | Ki (cruzain, from T. cruzi) [nM] | kirr (cruzain, from T. cruzi) [s⁻¹] | k/KI (kirr/KI) (cruzain, from T. cruzi) | kirr [1] [s⁻¹] | Ki [1] [nM] | kobs /[I]* (approximate second-order inactivation constant) [1] | k/KI (kirr/KI) [1] | kirr (Cloned cathepsin S) [s⁻¹] | Ki (Cloned cathepsin S) [nM] | k/KI (kirr/KI) (Cloned cathepsin S) | Ki ([1]; listed as Mu-Phe-Hph-VSPh) [nM] | kirr ([1]; listed as Mu-Phe-Hph-VSPh) [s⁻¹] | k/KI (kirr/KI) ([1]; listed as Mu-Phe-Hph-VSPh) | Ki (Cloned cathepsin S; listed as Mu-Phe-Hph-VSPh) [nM] | kirr (Cloned cathepsin S; listed as Mu-Phe-Hph-VSPh) [s⁻¹] | k/KI (kirr/KI) (Cloned cathepsin S; listed as Mu-Phe-Hph-VSPh) | Structure (SMILES) | inhibition of the growth of P. carinii (P. carinii) [%] | effectiveness against T. cruzi in J774 cells (T. cruzi) | inhibition of U87MG migration (U87MG) [%] | kobs /[I]* (calpain) [M⁻¹ s⁻¹]
1 | 520 | 0.11 | 213,000 M^-1 sec^-1 | 0.40 | 810 | 28,700 M^-1 sec^-1 | 490,000 M^-1 sec^-1 | 0.16 | 5.9 | 26,300,000 M^-1 sec^-1 | – | – | – | – | – | – | CC(C)C[C@H](NC(=O)N1CCOCC1)C(=O)N[C@H](/C=C/S(=O)(=O)c1ccccc1)CCc1ccccc1 [Mu-Leu-HphVSPh, (S)-(E)-3-(4-morpholinecarbonylleucyl)amino-5-phenyl-1-phenylsulfonyl-1-pentene] | 64 | effective | 53 | –
2 | 3200 | 0.43 | 134,000 M^-1 sec^-1 | 0.24 | 1000 | 260,000 M^-1 sec^-1 | 224,000 M^-1 sec^-1 | 0.085 | 11 | 7,700,000 M^-1 sec^-1 | 1100 | 0.23 | 201,000 M^-1 sec^-1 | 23 | 0.15 | 6,500,000 M^-1 sec^-1 | O=C(N[C@H](/C=C/S(=O)(=O)c1ccccc1)CCc1ccccc1)C(Cc1ccccc1)NC(=O)N1CCOCC1 (stereo partly drawn) [Mu-Phe-HphVSPh, (S)-(E)-3-(4-morpholinecarbonyl-phenylalanyl)amino-5-phenyl-1-phenylsulfonyl-1-pentene] | – | – | 63 | < 50
